Experimental data reported in US11918592B2, “Inhibitors of cyclin dependent kinase 7 (CDK7)” (Syros Pharmaceuticals, Inc., priority 2018, dated 2024).
Like-named read-outs stand apart in the source and are kept apart here.

Legend:
HCC70 cells = experiment: Inhibition of cell proliferation, CyQUANT Direct, HCC70; type: cell-based, human; conditions: Homo sapiens, read-out: HCC 70 proliferation calculated IC50
COV318 cells = experiment: Inhibition of cell proliferation, CyQUANT Direct, COV318; type: cell-based; conditions: Homo sapiens; COV318 ovarian cancer cells, 72-hour; read-out: COV 318 proliferation calculated IC50
COV504 cells = experiment: Inhibition of cell proliferation, CyQUANT Direct, COV504; type: cell-based; conditions: Homo sapiens; COV504 ovarian cancer cells, 72-hour; read-out: COV 504 proliferation calculated IC50
MB453 cells = experiment: Inhibition of cell proliferation, CyQUANT Direct, MB453; type: cell-based, human; conditions: Homo sapiens, read-out: MB 453 proliferation calculated IC50
CDK2/Cyclin E1 complex = CDK2/Cyclin E1 complex (Homo sapiens, UniProt P24941); experiment: CDK2 kinase inhibition assay (Caliper/LabChip EZ Reader)
[1] = molecular target: CDK7/Cyclin H/MAT1 complex (Homo sapiens, UniProt P50613); experiment: CDK7 kinase inhibition assay (Caliper/LabChip EZ Reader)
CDK7/Cyclin H/MAT1 complex, sequence (P50613 whole entry): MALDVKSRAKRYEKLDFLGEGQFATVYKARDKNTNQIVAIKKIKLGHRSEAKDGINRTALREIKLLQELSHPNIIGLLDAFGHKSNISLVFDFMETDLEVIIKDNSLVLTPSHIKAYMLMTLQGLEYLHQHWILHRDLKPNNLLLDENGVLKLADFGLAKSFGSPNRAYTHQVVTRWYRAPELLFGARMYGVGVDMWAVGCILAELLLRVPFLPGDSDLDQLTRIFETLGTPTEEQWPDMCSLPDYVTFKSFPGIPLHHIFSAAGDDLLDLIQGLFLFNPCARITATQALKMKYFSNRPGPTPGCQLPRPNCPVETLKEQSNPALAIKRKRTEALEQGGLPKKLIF
CDK7/Cyclin H/MAT1 complex, sequence (P51946 whole entry partner): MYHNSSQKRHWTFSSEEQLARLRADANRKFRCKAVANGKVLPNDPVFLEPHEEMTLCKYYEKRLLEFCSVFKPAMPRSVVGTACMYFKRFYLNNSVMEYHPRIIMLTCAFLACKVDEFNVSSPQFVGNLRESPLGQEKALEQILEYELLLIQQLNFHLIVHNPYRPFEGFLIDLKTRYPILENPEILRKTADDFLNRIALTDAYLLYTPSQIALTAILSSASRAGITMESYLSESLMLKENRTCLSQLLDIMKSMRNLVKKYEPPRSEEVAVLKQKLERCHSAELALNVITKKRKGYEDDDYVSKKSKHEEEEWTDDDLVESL
CDK7/Cyclin H/MAT1 complex, sequence (P51948 whole entry partner): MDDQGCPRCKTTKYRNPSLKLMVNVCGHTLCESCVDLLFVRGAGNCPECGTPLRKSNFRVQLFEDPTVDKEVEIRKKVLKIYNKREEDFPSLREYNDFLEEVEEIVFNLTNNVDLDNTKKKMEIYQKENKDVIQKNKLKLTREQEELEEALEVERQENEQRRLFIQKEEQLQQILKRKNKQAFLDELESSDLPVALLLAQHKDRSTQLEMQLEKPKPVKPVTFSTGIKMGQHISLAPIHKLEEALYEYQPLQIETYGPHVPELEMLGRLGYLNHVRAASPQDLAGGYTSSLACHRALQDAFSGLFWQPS
Method: Compounds of the invention were assayed for inhibition of CDK7, CDK9, CDK12, and CDK2 activity at Biortus Biosciences (Jiangyin, Jiangsu Province, P.R. of China) using kinase assays for each CDK developed with a Caliper/LabChip EZ Reader (Perkin Elmer, Waltham, MA).
Furthermore, the CDK9 inhibition assay used CDK9/Cyclin T1 complex (8 nM) and “5-FAM-CDK9tide” peptide substrate (2 μM, synthesized fluorophore-labeled peptide with the following sequence: 5-FAM-GSRTPMY-NH2 (SEQ ID NO:2) where 5-FAM is defined above and NH2 signifies a C-terminal amide) with 10 mM MgCl2 in the buffer composition listed above. The CDK12 inhibition assay used CDK12 (aa686-1082)/Cyclin K complex (50 nM) and “5-FAM-CDK9tide” (2 μM) as defined above, with 2 mM MgCl2 in the buffer composition above. Additionally, the CDK2 inhibition assay used CDK2/Cyclin E1 complex (0.5 nM) and “5-FAM-CDK7tide” (2 μM) as defined above, with 2 mM MgCl2 in the buffer composition listed above.
The incubation period at 27° C. for each CDK inhibition assay was chosen such that the fraction of phosphorylated peptide product produced in each assay, relative to the total peptide concentration, was approximately 20% (±5%) for the uninhibited kinase (35 min. for CDK7, 35 min. for CDK2, 3 hr. for CDK12, 15 min. for CDK9).

CDK9/Cyclin T1 complex = CDK9/Cyclin T1 complex (Homo sapiens, UniProt P50750); experiment: CDK9 kinase inhibition assay (Caliper/LabChip EZ Reader)
CDK9/Cyclin T1 complex, sequence (P50750 whole entry, the tested form may be a part): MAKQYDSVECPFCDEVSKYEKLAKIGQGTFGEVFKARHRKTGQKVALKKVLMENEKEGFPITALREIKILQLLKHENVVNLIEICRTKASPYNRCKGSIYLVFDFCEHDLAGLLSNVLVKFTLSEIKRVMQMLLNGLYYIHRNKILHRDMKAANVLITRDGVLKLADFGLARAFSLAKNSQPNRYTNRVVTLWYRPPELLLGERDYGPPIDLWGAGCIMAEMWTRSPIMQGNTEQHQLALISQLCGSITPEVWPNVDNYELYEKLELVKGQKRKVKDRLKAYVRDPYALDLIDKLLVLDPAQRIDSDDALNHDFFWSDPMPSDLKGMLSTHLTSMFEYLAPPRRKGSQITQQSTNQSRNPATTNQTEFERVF
CDK9/Cyclin T1 complex, sequence (O60563 whole entry partner, the tested form may be a part): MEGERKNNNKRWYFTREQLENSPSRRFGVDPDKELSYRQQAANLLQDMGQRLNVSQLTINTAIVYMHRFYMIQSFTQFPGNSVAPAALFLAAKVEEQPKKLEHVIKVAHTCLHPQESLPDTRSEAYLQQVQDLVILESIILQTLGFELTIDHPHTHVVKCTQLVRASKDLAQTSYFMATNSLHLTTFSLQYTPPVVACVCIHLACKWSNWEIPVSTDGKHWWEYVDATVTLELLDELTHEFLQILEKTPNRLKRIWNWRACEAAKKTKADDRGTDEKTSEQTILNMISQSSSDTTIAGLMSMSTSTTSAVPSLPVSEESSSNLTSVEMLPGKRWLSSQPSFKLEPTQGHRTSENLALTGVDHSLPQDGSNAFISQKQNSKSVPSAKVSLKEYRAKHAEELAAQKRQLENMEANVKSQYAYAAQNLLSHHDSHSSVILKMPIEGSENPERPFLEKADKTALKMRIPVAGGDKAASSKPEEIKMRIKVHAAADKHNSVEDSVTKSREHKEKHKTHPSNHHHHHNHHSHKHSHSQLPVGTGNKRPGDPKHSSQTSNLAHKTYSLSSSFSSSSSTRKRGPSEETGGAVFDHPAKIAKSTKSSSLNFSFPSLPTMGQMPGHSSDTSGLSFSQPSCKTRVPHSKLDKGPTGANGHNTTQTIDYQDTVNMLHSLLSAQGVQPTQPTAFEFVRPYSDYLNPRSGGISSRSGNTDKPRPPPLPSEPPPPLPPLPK

[2] = molecular target: CDK12 (aa686-1082)/Cyclin K complex (Homo sapiens, UniProt Q9NYV4); experiment: CDK12 kinase inhibition assay (Caliper/LabChip EZ Reader)
CDK12 (aa686-1082)/Cyclin K complex, sequence (Q9NYV4 686-1082): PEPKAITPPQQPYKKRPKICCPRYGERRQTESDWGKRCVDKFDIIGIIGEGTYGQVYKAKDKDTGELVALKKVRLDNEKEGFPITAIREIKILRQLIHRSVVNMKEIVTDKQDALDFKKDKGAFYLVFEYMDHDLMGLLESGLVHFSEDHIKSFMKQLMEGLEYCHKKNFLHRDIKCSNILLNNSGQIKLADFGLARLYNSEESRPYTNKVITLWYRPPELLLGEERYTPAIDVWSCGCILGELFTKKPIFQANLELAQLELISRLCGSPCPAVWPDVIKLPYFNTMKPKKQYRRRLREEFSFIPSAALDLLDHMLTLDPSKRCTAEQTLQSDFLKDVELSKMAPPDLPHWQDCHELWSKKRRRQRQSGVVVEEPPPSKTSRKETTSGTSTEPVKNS
CDK12 (aa686-1082)/Cyclin K complex, sequence (O75909 whole entry partner, the tested form may be a part): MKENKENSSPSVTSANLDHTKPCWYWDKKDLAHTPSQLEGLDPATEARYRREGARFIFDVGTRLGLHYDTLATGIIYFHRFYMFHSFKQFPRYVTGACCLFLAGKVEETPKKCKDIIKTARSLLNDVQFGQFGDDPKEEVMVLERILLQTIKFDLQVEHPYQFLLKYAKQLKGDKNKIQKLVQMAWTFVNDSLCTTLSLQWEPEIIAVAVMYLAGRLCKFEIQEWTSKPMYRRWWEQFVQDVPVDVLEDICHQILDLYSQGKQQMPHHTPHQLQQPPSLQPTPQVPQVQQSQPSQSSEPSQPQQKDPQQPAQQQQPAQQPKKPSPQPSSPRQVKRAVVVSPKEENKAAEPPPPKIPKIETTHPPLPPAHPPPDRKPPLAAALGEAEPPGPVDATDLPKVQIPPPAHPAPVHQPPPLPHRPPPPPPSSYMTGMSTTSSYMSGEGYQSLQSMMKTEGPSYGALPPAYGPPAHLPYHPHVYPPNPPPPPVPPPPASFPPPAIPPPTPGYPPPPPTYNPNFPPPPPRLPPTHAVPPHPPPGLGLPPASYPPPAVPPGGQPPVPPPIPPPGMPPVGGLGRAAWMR

[3] = HCC70 triple negative breast cancer cells, 72-hour
[4] = MB453 triple negative breast cancer cells, 72-hour

Row | SMILES | IC50 (HCC70 cells; [3]) | IC50 (COV318 cells) | IC50 (COV504 cells) | IC50 (MB453 cells; [4]) | IC50 (CDK2/Cyclin E1 complex) | IC50 [1] | IC50 (CDK9/Cyclin T1 complex) | IC50 [2] | IC50 (HCC70 cells; HCC70, 72 h) | IC50 (MB453 cells; 72 h)
1 | Cc1noc(C)c1-c1ccc2c(-c3nc(N[C@H]4CCC[C@@H]4N)ncc3C(F)(F)F)c[nH]c2c1 [Compound 118] | 100 to 500 nM | < 100 nM | < 100 nM | < 100 nM | > 500 nM | < 30 nM | > 500 nM | > 500 nM |  | 
2 | CC(C)N1CC[C@H](Nc2ncc(C(F)(F)F)c(-c3c[nH]c4cc(C#N)ccc34)n2)C1 [Compound 105] | > 2000 nM | > 2000 nM | > 2000 nM | > 2000 nM | > 500 nM | > 500 nM | > 500 nM | > 500 nM |  | 
3 | N#Cc1ccc2c(-c3nc(NC[C@@H]4COCCN4)ncc3C(F)(F)F)c[nH]c2c1 [Compound 102] | > 2000 nM | > 2000 nM | > 2000 nM | > 2000 nM | > 500 nM | > 500 nM | > 500 nM | > 500 nM |  | 
4 | CCO[C@@H]1CNC[C@H]1Nc1ncc(C(F)(F)F)c(-c2c[nH]c3cc(C#N)ccc23)n1 (relative stereo) [Compound 111] | > 2000 nM | > 2000 nM | > 2000 nM | > 2000 nM | > 500 nM | 100 to 500 nM | > 500 nM | > 500 nM |  | 
5 | N#Cc1ccc2c(-c3nc(N[C@H]4Cc5ccccc5[C@@H]4N)ncc3C(F)(F)F)c[nH]c2c1 [Compound 119, 3-[2-[[(1S,2S)-1-aminoindan-2-yl]-amino]-5-(trifluoromethyl)pyrimidin-4-yl]-1H-indole-6-carbonitrile] | 100 to 500 nM | > 2000 nM | 100 to 500 nM | 100 to 500 nM | > 500 nM | < 30 nM | > 500 nM | > 500 nM |  | 
6 | COCCN[C@H]1CC[C@@H]1Nc1ncc(C(F)(F)F)c(-c2c[nH]c3cc(C#N)ccc23)n1 [Compound 133] | 500 to 2000 nM | 500 to 2000 nM | 500 to 2000 nM | 500 to 2000 nM | > 500 nM | 30 to 100 nM | > 500 nM | > 500 nM |  | 
7 | Cc1noc(C)c1-c1ccc2c(-c3nc(N[C@H]4CC[C@@H]4N)ncc3C(F)(F)F)c[nH]c2c1 [Compound 116, (1S,2S)—N2-[4-[6-(3,5-dimethylisoxazol-4-yl)-1H-indol-3-yl]-5-(trifluoromethyl)pyrimidin-2-yl]cyclobutane-1,2-diamine] | 100 to 500 nM | 100 to 500 nM | 100 to 500 nM | < 100 nM | > 500 nM | < 30 nM | > 500 nM | > 500 nM |  | 
8 | CC(=O)N[C@H]1CCC[C@@H]1Nc1ncc(C(F)(F)F)c(-c2c[nH]c3cc(C#N)ccc23)n1 [Compound 120, N-[(1S,2S)-2-[[4-(6-cyano-1H-indol-3-yl)-5-(trifluoromethyl)pyrimidin-2-yl]-amino]cyclopentyl]-acetamide] | > 2000 nM | > 2000 nM | > 2000 nM | > 2000 nM | > 500 nM | > 500 nM | > 500 nM | > 500 nM |  | 
9 | Cc1noc(C)c1-c1ccc2c(-c3nc(N[C@H]4CCC[C@H]4N4CC(F)C4)ncc3C(F)(F)F)c[nH]c2n1 [Compound 156, 4-[6-(3,5-dimethylisoxazol-4-yl)-1H-pyrrolo [2,3-b]pyridin-3-yl]-N-[(1S, 2R)-2-(3-fluoroazetidin-1-yl)cyclopentyl]-5-(trifluoromethyl) pyrimidin-2-amine] | 100 to 500 nM | > 2000 nM | 100 to 500 nM | 500 to 2000 nM | > 500 nM | < 30 nM | > 500 nM | > 500 nM |  | 
10 | N#Cc1ccc2c(-c3nc(N[C@H]4C[C@H]5CC[C@@H]4N5)ncc3C(F)(F)F)c[nH]c2c1 [Compound 114, 3-[2-[[(1S,2S,4R)-7-azabicyclo[2.2.1]heptan-3-yl]-amino]-5-(trifluoromethyl)pyrimidin-4-yl]-1H-indole-6-carbonitrile] | 100 to 500 nM | 100 to 500 nM | < 100 nM | < 100 nM | > 500 nM | < 30 nM | > 500 nM | > 500 nM |  | 
11 | N#Cc1ccc2c(-c3nc(N[C@H]4CCC[C@@H]4N4CCOCC4)ncc3C(F)(F)F)c[nH]c2c1 [Compound 121] | > 2000 nM | > 2000 nM | > 2000 nM | > 2000 nM | > 500 nM | 30 to 100 nM | > 500 nM | > 500 nM |  | 
12 | Cc1noc(C)c1-c1ccc2c(-c3nc(N[C@H]4CCC[C@@H]4N4CC[C@H](F)C4)ncc3C(F)(F)F)c[nH]c2n1 [Compound 150, 4-[6-(3,5-dimethylisoxazol-4-yl)-1H-pyrrolo[2,3-b]pyridin-3-yl]-N-[(1S,2S)-2-[(3S)-3-fluoropyrrolidin-1-yl]cyclopentyl]-5-(trifluoromethyl)pyrimidin-2-amine] | 500 to 2000 nM | > 2000 nM | 500 to 2000 nM | > 2000 nM | > 500 nM | 30 to 100 nM | > 500 nM | > 500 nM |  | 
13 | Cc1noc(C)c1-c1ccc2c(-c3nc(N[C@H]4CCCC4N4CCCC4)ncc3C(F)(F)F)c[nH]c2n1 (stereo partly drawn) [Compound 144, 4-[6-(3,5-dimethylisoxazol-4-yl)-1H-pyrrolo[2,3-b]pyridin-3-yl]-N-[(1S)-2-pyrrolidin-1-ylcyclopentyl]-5-(trifluoromethyl) pyrimidin-2-amine] | 100 to 500 nM | < 100 nM | < 100 nM | < 100 nM | > 500 nM | < 30 nM | > 500 nM | > 500 nM |  | 
14 | Cc1noc(C)c1-c1ccc2c(-c3nc(NC4CCCC4N)ncc3C(F)(F)F)c[nH]c2n1 (stereo not drawn) [Compound 127] | < 100 nM | 100 to 500 nM | < 100 nM | < 100 nM | > 500 nM | < 30 nM | > 500 nM | > 500 nM |  | 
15 | N#Cc1ccc2c(-c3nc(N[C@H]4CCCC[C@@H]4N)ncc3C(F)(F)F)c[nH]c2c1 [Compound 100] | > 2000 nM | > 2000 nM | > 2000 nM | 500 to 2000 nM | > 500 nM | > 500 nM | > 500 nM | > 500 nM |  | 
16 | Cc1noc(C)c1-c1ccc2c(-c3nc(N[C@H]4CCC[C@@H]4N4CCC4)ncc3C(F)(F)F)c[nH]c2n1 [Compound 146, N-[(1S, 2S)-2-(azetidin-1-yl)cyclopentyl]-4-[6-(3,5-dimethylisoxazol-4-yl)-1H-pyrrolo [2,3-b]pyridin-3-yl]-5-(trifluoromethyl) pyrimidin-2-amine] |  | > 2000 nM | < 100 nM |  | > 500 nM | < 30 nM | > 500 nM | > 500 nM | < 100 nM | < 100 nM
17 | CN(C)[C@H]1CCC[C@@H]1Nc1ncc(C(F)(F)F)c(-c2c[nH]c3cc(C#N)ccc23)n1 [Compound 124] | 500 to 2000 nM | > 2000 nM | 500 to 2000 nM | 500 to 2000 nM | > 500 nM | 100 to 500 nM | > 500 nM | > 500 nM |  | 
18 | Cc1noc(C)c1-c1ccc2c(-c3nc(N[C@H]4CCC[C@@H]4NCC(F)F)ncc3C(F)(F)F)c[nH]c2n1 [Compound 147, (1S, 2S)—N2-(2,2-difluoroethyl)-N1-[4-[6-(3,5-dimethylisoxazol-4-yl)-1H-pyrrolo[2,3-b]pyridin-3-yl]-5-(trifluoromethyl)pyrimidin-2-yl] cyclopentane-1,2-diamine] | 500 to 2000 nM | > 2000 nM | 100 to 500 nM | 100 to 500 nM | > 500 nM | < 30 nM | > 500 nM | > 500 nM |  | 
19 | COCCNC1CCC[C@@H]1Nc1ncc(C(F)(F)F)c(-c2c[nH]c3nc(-c4c(C)noc4C)ccc23)n1 (stereo in doubt) [Compound 152, (1S, 2R)—N1-[4-[6-(3,5-dimethylisoxazol-4-yl)-1H-pyrrolo [2,3-b]pyridin-3-yl]-5-(trifluoromethyl)pyrimidin-2-yl]-N2-(2-methoxyethyl)cyclopentane-1,2-diamine] | 100 to 500 nM | 500 to 2000 nM | 100 to 500 nM | 100 to 500 nM | > 500 nM | < 30 nM | > 500 nM | > 500 nM |  | 
20 | N#Cc1ccc2c(-c3nc(N[C@H]4CCC[C@@H]4N)ncc3C(F)(F)F)c[nH]c2c1 [Compound 101] | 100 to 500 nM | 100 to 500 nM | 100 to 500 nM | 100 to 500 nM | > 500 nM | < 30 nM | > 500 nM | > 500 nM |  | 
21 | Cc1noc(C)c1-c1ccc2c(-c3nc(N[C@H]4CCC[C@@H]4N4CC(F)C4)ncc3C(F)(F)F)c[nH]c2n1 [Compound 155, 4-[6-(3,5-dimethylisoxazol-4-yl)-1H-pyrrolo [2,3-b]pyridin-3-yl]-N-[(1S, 2S)-2-(3-fluoroazetidin-1-yl)cyclopentyl]-5-(trifluoromethyl) pyrimidin-2-amine] | > 2000 nM | > 2000 nM | > 2000 nM | > 2000 nM | > 500 nM | 100 to 500 nM | > 500 nM | > 500 nM |  | 
